Results published in patent US20250222146A1, “Radiopharmaceuticals Targeting Somatostatin Receptor 2 and Uses Thereof” (RayzeBio, Inc., priority 2023, published 2025).
Like-named read-outs stand apart in the source and are kept apart here. Numbered stars: 1 amine (or outer) side, 2 acyl side, 3 side chain; on linkers, the order of the positions; unused ones are H or OH. Square brackets hold non-standard residues; d marks the D form. Side chains are listed from the residue outwards. Peptide text beside a SMILES is read from it. * marks the point of attachment. DOTA(Lu)NH(CH2)6NHCOCH2 = O=C(CN1CCN2CCN3CCN(CC1)CC(=O)[O][Lu]([O]C(=O)C2)[O]C(=O)C3)NCCCCCCNC(=O)C*; X9 = O=C1CN2CCN3CCN(CC(=O)N4CC(C(=O)*)C4)CCN(CC2)CC(=O)[O][Lu]([O]1)[O]C(=O)C3; DOTA(Lu) = O=C1CN2CCN3CCN(CC(=O)*)CCN(CC2)CC(=O)[O][Lu]([O]1)[O]C(=O)C3; Ala(piperidin-4-yl) = O=C([C@H](CC1CCN([*:3])CC1)N[*:1])[*:2]; dTrp(βS-Me) = C[C@@H](c1c[nH]c2ccccc12)[C@@H](N)C(=O)O; dTrp(5-Me) = Cc1ccc2[nH]cc(C[C@@H](N)C(=O)O)c2c1; Phe(3-CONH2) = NC(=O)c1cccc(C[C@H](N)C(=O)O)c1; Tyr(Ph) = N[C@@H](Cc1ccc(Oc2ccccc2)cc1)C(=O)O; Gly(piperidin-4-yl) = N[C@H](C(=O)O)C1CCNCC1; Phe(2-CONH2) = NC(=O)c1ccccc1C[C@H](N)C(=O)O; X22 = O=C([C@H](Cc1ccc(O)nc1)N[*:1])[*:2]; Dip = N[C@H](C(=O)O)C(c1ccccc1)c1ccccc1; 4Pal = N[C@@H](Cc1ccncc1)C(=O)O; X13 = NCCCCN(N[*:1])C(=O)[*:2]; NMehCys = CN[C@@H](CCS)C(=O)O; NMeK = CN[C@@H](CCCCN)C(=O)O; NMeDap = CN[C@@H](CN)C(=O)O

Molecular target: SSTR2 (Homo sapiens, UniProt P30874)
Experiment: SSTR binding affinity by radioligand binding competition assay ([125I]-Tyr11-Somatostatin, membrane extracts)
Conditions: radioligand competition, [125I]-Tyr11-Somatostatin 0.1 nM, membrane extracts, Ki from IC50 by Cheng Prusoff

SSTR2, sequence (P30874 whole entry): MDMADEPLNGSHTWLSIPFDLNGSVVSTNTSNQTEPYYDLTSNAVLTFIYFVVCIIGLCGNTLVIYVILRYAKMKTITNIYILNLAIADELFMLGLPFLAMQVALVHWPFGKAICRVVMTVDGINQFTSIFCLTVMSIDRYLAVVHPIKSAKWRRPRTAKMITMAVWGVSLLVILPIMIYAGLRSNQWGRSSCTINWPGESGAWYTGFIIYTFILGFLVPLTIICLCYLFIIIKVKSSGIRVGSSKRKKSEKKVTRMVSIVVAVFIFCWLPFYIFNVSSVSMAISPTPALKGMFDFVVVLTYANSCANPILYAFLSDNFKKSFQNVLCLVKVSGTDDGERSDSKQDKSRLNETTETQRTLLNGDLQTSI

SMILES	Ki (read-out: SSTR2 Ki) [nM]	Ki (SSTR2 Ki) [nM]
C[C@@H](O)[C@@H]1NC(=O)[C@H](CC2CCNCC2)NC(=O)[C@@H]([C@@H](C)c2c[nH]c3ccccc23)NC(=O)[C@H](Cc2ccc(O)cc2)NC(=O)[C@H](CCCCNC(=O)CCC2C(=O)[O][Ga]3[O]C(=O)CN4CCN(CCN2CC4)CC(=O)[O]3)N(C)C(=O)[C@H](Cc2ccccc2)NC1=O (mixture of isomers) [RB-0006285]	1 to 3.33	
C[C@@H](O)[C@@H]1NC(=O)[C@H](CCCCN)NC(=O)[C@@H](Cc2c[nH]c3ccccc23)NC(=O)[C@H](Cc2ccc(O)cc2)NC(=O)[C@H](CCSCC(=O)NCCCCCCNC(=O)CN2CCN3CCN4CCN(CC2)CC(=O)[O][Lu]([O]C(=O)C3)[O]C(=O)C4)N(C)C(=O)[C@@H]2CCCN2C1=O [RB-0005864] (cyclo(KTP[NMehCys](DOTA(Lu)NH(CH2)6NHCOCH2)Y[dW]))	1 to 3.33	
C[C@@H](O)[C@@H]1NC(=O)[C@H](CCCCN)NC(=O)[C@@H](Cc2c[nH]c3ccccc23)NC(=O)[C@H](Cc2ccncc2)NC(=O)[C@H](CCSCC(=O)NCCCCCCNC(=O)CN2CCN3CCN4CCN(CC2)CC(=O)[O][Lu]([O]C(=O)C3)[O]C(=O)C4)N(C)C(=O)[C@H](Cc2ccccc2)NC1=O [RB-0003002] (cyclo([4Pal][dW]KTF[NMehCys](DOTA(Lu)NH(CH2)6NHCOCH2)))	< 1	
C[C@@H](O)[C@@H]1NC(=O)[C@H](CCCCN)NC(=O)[C@@H](Cc2c[nH]c3ccccc23)NC(=O)[C@H](Cc2ccccc2C(N)=O)NC(=O)[C@H](CCSCC(=O)NCCCCCCNC(=O)CN2CCN3CCN4CCN(CC2)CC(=O)[O][Lu]([O]C(=O)C3)[O]C(=O)C4)N(C)C(=O)[C@H](Cc2ccccc2)NC1=O [RB-0003304] (cyclo(F[NMehCys](DOTA(Lu)NH(CH2)6NHCOCH2)[Phe(2-CONH2)][dW]KT))	3.33 to 10	
C[C@@H](O)[C@@H]1NC(=O)[C@H](C2CCNCC2)NC(=O)[C@@H](Cc2c[nH]c3ccccc23)NC(=O)[C@H](Cc2ccc(O)cc2)NC(=O)[C@H](CCSCC(=O)NCCCCCCNC(=O)CN2CCN3CCN4CCN(CC2)CC(=O)[O][Lu]([O]C(=O)C3)[O]C(=O)C4)N(C)C(=O)[C@H](Cc2ccccc2)NC1=O [RB-0004868] (cyclo(F[NMehCys](DOTA(Lu)NH(CH2)6NHCOCH2)Y[dW][Gly(piperidin-4-yl)]T))	3.33 to 10	
C[C@@H](O)[C@@H]1NC(=O)[C@H](CC2CCNCC2)NC(=O)[C@@H]([C@@H](C)c2c[nH]c3ccccc23)NC(=O)[C@H](Cc2ccc(Oc3ccccc3)cc2)NC(=O)[C@H](CCCCNC(=O)CN2CCN3CCN4CCN(CC2)CC(=O)[O][Lu]([O]C(=O)C3)[O]C(=O)C4)N(C)C(=O)[C@H](Cc2ccccc2)NC1=O [RB-0006237] (cyclo(F[NMeK](DOTA(Lu))[Tyr(Ph)][dTrp(βS-Me)][Ala(piperidin-4-yl)]T))	3.33 to 10	
C[C@@H](O)[C@@H]1NC(=O)[C@H](CCCCN)NC(=O)[C@@H](Cc2c[nH]c3ccccc23)NC(=O)[C@H](Cc2ccc(O)cc2)NC(=O)[C@H](CCSCC(=O)NCCCCCCNC(=O)CN2CCN3CCN4CCN(CC2)CC(=O)[O][Lu]([O]C(=O)C3)[O]C(=O)C4)N(C)C(=O)[C@H](Cc2cccc(C(N)=O)c2)NC1=O [RB-0003306] (cyclo(KT[Phe(3-CONH2)][NMehCys](DOTA(Lu)NH(CH2)6NHCOCH2)Y[dW]))	1 to 3.33	
C[C@@H](O)[C@@H]1NC(=O)[C@H](CCCCN)NC(=O)[C@@H](Cc2c[nH]c3ccccc23)NC(=O)[C@H](Cc2ccc(O)cc2)NC(=O)[C@H](CCSCC(=O)NCCCCCCNC(=O)CN2CCN3CCN4CCN(CC2)CC(=O)[O][Lu]([O]C(=O)C3)[O]C(=O)C4)N(C)C(=O)[C@H](Cc2ccc(O)nc2)NC1=O [RB-0003279] (cyclo(KT[X22][NMehCys](DOTA(Lu)NH(CH2)6NHCOCH2)Y[dW]))	3.33 to 10	
C[C@@H](O)[C@@H]1NC(=O)[C@H](CCCCN)NC(=O)[C@@H]([C@@H](C)c2c[nH]c3ccccc23)NC(=O)[C@H](Cc2ccncc2)NC(=O)[C@H](CCSCC(=O)NCCCCCCNC(=O)CN2CCN3CCN4CCN(CC2)CC(=O)[O][Lu]([O]C(=O)C3)[O]C(=O)C4)N(C)C(=O)[C@H](Cc2ccccc2)NC1=O [RB-0003381] (cyclo([4Pal][dTrp(βS-Me)]KTF[NMehCys](DOTA(Lu)NH(CH2)6NHCOCH2)))	< 1	
C[C@@H](O)[C@@H]1NC(=O)[C@H](CC2CCNCC2)NC(=O)[C@@H]([C@@H](C)c2c[nH]c3ccccc23)NC(=O)[C@H](Cc2ccc(O)cc2)NC(=O)[C@H](CNC(=O)[C@H](CC(=O)O)NC(=O)CN2CCN3CCN4CCN(CC2)CC(=O)[O][Lu]([O]C(=O)C3)[O]C(=O)C4)N(C)C(=O)[C@H](Cc2ccccc2)NC1=O [RB-0006160] (cyclo(F[NMeDap]([Asp-DOTA(Lu)])Y[dTrp(βS-Me)][Ala(piperidin-4-yl)]T))	10 to 33.3	
C[C@@H](O)[C@@H]1NC(=O)[C@H](CCCCN)NC(=O)[C@@H](Cc2c[nH]c3ccccc23)NC(=O)[C@H](Cc2ccc(O)cc2)NC(=O)[C@H](CCCSCC(=O)NCCCCCCNC(=O)CN2CCN3CCN4CCN(CC2)CC(=O)[O][Lu]([O]C(=O)C3)[O]C(=O)C4)N(C)C(=O)[C@H](Cc2ccccc2)NC1=O [RB-0003484]	< 1	
C[C@@H](O)[C@@H]1NC(=O)[C@@H](CCCCN)NC(=O)[C@@H](Cc2c[nH]c3ccccc23)NC(=O)[C@H](Cc2ccc(O)cc2)NC(=O)[C@H](CCSCC(=O)NCCCCCCNC(=O)CN2CCN3CCN4CCN(CC2)CC(=O)[O][Lu]([O]C(=O)C3)[O]C(=O)C4)N(C)C(=O)[C@H](Cc2ccccc2)NC1=O [RB-0005827]		10 to 33.3
C[C@@H](O)[C@@H]1NC(=O)[C@H](CC2CCNCC2)NC(=O)[C@@H]([C@@H](C)c2c[nH]c3ccccc23)NC(=O)[C@H](C(c2ccccc2)c2ccccc2)NC(=O)[C@H](CCCCNC(=O)CN2CCN3CCN4CCN(CC2)CC(=O)[O][Lu]([O]C(=O)C3)[O]C(=O)C4)N(C)C(=O)[C@H](Cc2ccccc2)NC1=O [RB-0006239] (cyclo([Dip][dTrp(βS-Me)][Ala(piperidin-4-yl)]TF[NMeK](DOTA(Lu))))	10 to 33.3	
Cc1ccc2[nH]cc(C[C@H]3NC(=O)[C@H](Cc4ccc(O)cc4)NC(=O)[C@H](CCSCC(=O)NCCCCCCNC(=O)CN4CCN5CCN6CCN(CC4)CC(=O)[O][Lu]([O]C(=O)C5)[O]C(=O)C6)N(C)C(=O)[C@H](Cc4ccccc4)NC(=O)[C@H]([C@@H](C)O)NC(=O)[C@H](CC4CCNCC4)NC3=O)c2c1 [RB-0006074] (cyclo(F[NMehCys](DOTA(Lu)NH(CH2)6NHCOCH2)Y[dTrp(5-Me)][Ala(piperidin-4-yl)]T))	3.33 to 10	
C[C@@H](O)[C@@H]1NC(=O)N(CCCCN)NC(=O)[C@@H](Cc2c[nH]c3ccccc23)NC(=O)[C@H](Cc2ccc(O)cc2)NC(=O)[C@H](CCCCNC(=O)CN2CCN3CCN4CCN(CC2)CC(=O)[O][Lu]([O]C(=O)C3)[O]C(=O)C4)N(C)C(=O)[C@H](Cc2ccccc2)NC1=O [RB-0006217] (cyclo(F[NMeK](DOTA(Lu))Y[dW][X13]T))	< 1	
CC(C)[C@@H]1NC(=O)[C@H](CCCCN)NC(=O)[C@@H](Cc2c[nH]c3ccccc23)NC(=O)[C@H](Cc2ccc(O)cc2)NC(=O)[C@H](CCSCC(=O)NCCCCCCNC(=O)CN2CCN3CCN4CCN(CC2)CC(=O)[O][Lu]([O]C(=O)C3)[O]C(=O)C4)N(C)C(=O)[C@H](CC(N)=O)NC1=O [RB-0005253] (cyclo(KVN[NMehCys](DOTA(Lu)NH(CH2)6NHCOCH2)Y[dW]))	3.33 to 10	
C[C@@H](O)[C@@H]1NC(=O)[C@H](CC2CCNCC2)NC(=O)[C@@H]([C@@H](C)c2c[nH]c3ccccc23)NC(=O)[C@H](Cc2ccc(O)cc2)NC(=O)[C@H](CCCCNC(=O)C2CN(C(=O)CN3CCN4CCN5CCN(CC3)CC(=O)[O][Lu]([O]C(=O)C5)[O]C(=O)C4)C2)N(C)C(=O)[C@H](Cc2ccccc2)NC1=O [RB-0006455] (cyclo(F[NMeK](X9)Y[dTrp(βS-Me)][Ala(piperidin-4-yl)]T))	1 to 3.33	
C[C@@H](O)[C@@H]1NC(=O)[C@H](CCCCN)NC(=O)[C@@H](Cc2c[nH]c3ccccc23)NC(=O)[C@H](Cc2ccc(O)cc2)NC(=O)[C@H](CSCC(=O)NCCCCCCNC(=O)CN2CCN3CCN4CCN(CC2)CC(=O)[O][Lu]([O]C(=O)C3)[O]C(=O)C4)N(C)C(=O)[C@H](Cc2ccccc2)NC1=O [RB-0003164]		1 to 3.33
CC(C)[C@@H]1NC(=O)[C@H](CCCCN)NC(=O)[C@@H](Cc2c[nH]c3ccccc23)NC(=O)[C@H](C(c2ccccc2)c2ccccc2)NC(=O)[C@H](CCSCC(=O)NCCCCCCNC(=O)CN2CCN3CCN4CCN(CC2)CC(=O)[O][Lu]([O]C(=O)C3)[O]C(=O)C4)N(C)C(=O)[C@H](Cc2ccccc2)NC1=O [RB-0004613] (cyclo([Dip][dW]KVF[NMehCys](DOTA(Lu)NH(CH2)6NHCOCH2)))	< 1	
CCN(C)CC(=O)[O][Lu]1[O]C(=O)CN(C)CCN(CCN(CC)CC(=O)NCCCCCC(=O)NCCCCC[C@H]2C(=O)N[C@@H](Cc3ccc(O)cc3)C(=O)N[C@H](Cc3c[nH]c4ccccc34)C(=O)N[C@@H](CCCCN)C(=O)N[C@@H]([C@@H](C)O)C(=O)N[C@@H](Cc3ccccc3)C(=O)N2C)CC(=O)[O]1 [RB-0003057]	< 1	
C[C@@H](O)[C@@H]1NC(=O)[C@H](CCCCN)NC(=O)[C@@H](Cc2c[nH]c3ccccc23)NC(=O)[C@H](Cc2ccc(O)cc2)NC(=O)[C@H](CCSCC(=O)NCCCCCCNC(=O)CCC(C(=O)O)N2CCN3CCN4CCN(CC2)CC(=O)[O][Lu]([O]C(=O)C4)[O]C(=O)C3)N(C)C(=O)[C@H](Cc2ccccc2)NC1=O (stereo partly shown) [RB-0005274]	< 1	
CC(C)[C@@H]1NC(=O)[C@H](CCCCN)NC(=O)[C@@H](Cc2c[nH]c3ccccc23)NC(=O)[C@H](Cc2ccc(O)cc2)NC(=O)[C@H](CCSCC(=O)NCCCCCCNC(=O)CN2CCN3CCN4CCN(CC2)CC(=O)[O][Lu]([O]C(=O)C3)[O]C(=O)C4)N(C)C(=O)[C@H](C)NC1=O [RB-0005266] (cyclo(A[NMehCys](DOTA(Lu)NH(CH2)6NHCOCH2)Y[dW]KV))	< 1	
